Measurements from PubChem BioAssay (NCI).
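96-well plates; 48 h exposure; 5 concentrations. Endpoints by linear interpolation between flanking doses. Not reached: highest tested concentration assigned. The concentration for 50% growth inhibition is given as GI50. TGI is the concentration that stops growth completely.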

Experiments:
Assay in all cases: NCI tumour cell line growth inhibition, 48 h
[1] = system: UACC-257 melanoma
[2] = system: MDA-MB-231 breast
[3] = system: SF-268 CNS
[4] = system: NCI/ADR-RES ovarian
[5] = system: SK-MEL-5 melanoma
[6] = system: OVCAR-4 ovarian
[7] = system: K-562 leukemia
[8] = system: A549 NSCLC
[9] = system: MCF7 breast
[10] = system: HS 578T breast
[11] = system: OVCAR-8 ovarian
[12] = system: KM12 colon
[13] = system: CCRF-CEM leukemia
[14] = system: SF-539 CNS
[15] = system: SK-MEL-2 melanoma
[16] = system: SN12C renal
[17] = system: DU-145 prostate
[18] = system: CAKI-1 renal
[19] = system: HL-60(TB) leukemia
[20] = system: SF-295 CNS
[21] = system: SK-MEL-28 melanoma
[22] = system: HCT-15 colon
[23] = system: LOX IMVI melanoma
[24] = system: UO-31 renal
[25] = system: ACHN renal
[26] = system: U251 CNS
[27] = system: SW-620 colon
[28] = system: UACC-62 melanoma
[29] = system: SNB-19 CNS
[30] = system: SNB-75 CNS
[31] = system: SK-OV-3 ovarian
[32] = system: A498 renal
[33] = system: OVCAR-3 ovarian
[34] = system: SR leukemia
[35] = system: COLO 205 colon
[36] = system: NCI-H460 lung
[37] = system: NCI-H226 lung
[38] = system: 786-0 renal
[39] = system: NCI-H522 lung
[40] = system: M14 melanoma
[41] = system: HCC-2998 colon
[42] = system: BT-549 breast
[43] = system: RXF 393 renal
[44] = system: MOLT-4 leukemia
[45] = system: IGROV1 ovarian
[46] = system: RPMI-8226 leukemia
[47] = system: HT29 colon
[48] = system: HCT-116 colon
[49] = system: HOP-62 NSCLC
[50] = system: OVCAR-5 ovarian
[51] = system: PC-3 prostate
[52] = system: MDA-MB-435

`C[n+]1c(/C=C/c2c[nH]c3ccccc23)ccc2ccccc21` showed a GI50 [1] of 12.2 µM, a TGI [1] of 25.2 µM and a GI50 [2] of 10.5 µM. For the same compound, the TGI [2] was 23 µM, the GI50 [3] was 10.4 µM and the TGI [3] was 24.2 µM. For the same compound, the GI50 [4] was greater than 100 µM, the TGI [4] was greater than 100 µM and the GI50 [5] was 6.15 µM. For the same compound, the TGI [5] was 19.6 µM, the GI50 [6] was 7.07 µM and the TGI [6] was 37.1 µM. The GI50 [7] was 2.32 µM, the TGI [7] was 18.1 µM and the GI50 [8] was 5.38 µM. For the same compound, the TGI [8] was 26 µM, the GI50 [9] was 2.16 µM and the TGI [9] was 34.1 µM. The GI50 [10] was 13.2 µM, the TGI [10] was 33.3 µM and the GI50 [11] was 4.24 µM. It also gave a TGI [11] of 28.9 µM, a GI50 [12] of 4.61 µM and a TGI [12] of 22.3 µM. It also gave a GI50 [13] of 5.59 µM, a TGI [13] of 45 µM and a GI50 [14] of 12.7 µM. For the same compound, the TGI [14] was 27.3 µM, the GI50 [15] was 16.1 µM and the TGI [15] was 30.6 µM. For the same compound, the GI50 [16] was 5.68 µM, the TGI [16] was 21 µM and the GI50 [17] was 10.1 µM. The TGI [17] was 22.7 µM, the GI50 [18] was 14.6 µM and the TGI [18] was 34.9 µM. The GI50 [19] was 12.8 µM, the TGI [19] was 30.1 µM and the GI50 [20] was 6.93 µM. The TGI [20] was 20.5 µM, the GI50 [21] was 13.8 µM and the TGI [21] was 27.3 µM. For the same compound, the GI50 [22] was 18 µM, the TGI [22] was 53.4 µM and the GI50 [23] was 11 µM. For the same compound, the TGI [23] was 23.1 µM, the GI50 [24] was 11.3 µM and the TGI [24] was 30.4 µM. The GI50 [25] was 10.1 µM, the TGI [25] was 47.8 µM and the GI50 [26] was 8.75 µM. The TGI [26] was 22.5 µM, the GI50 [27] was 4 µM and the TGI [27] was 19.4 µM. For the same compound, the GI50 [28] was 7.31 µM, the TGI [28] was 21.1 µM and the GI50 [29] was 11.3 µM. It also gave a TGI [29] of 35.1 µM, a GI50 [30] of 14.1 µM and a TGI [30] of 27.4 µM. For the same compound, the GI50 [31] was 14.7 µM, the TGI [31] was 90.8 µM and the GI50 [32] was 2.8 µM. For the same compound, the TGI [32] was 18.1 µM, the GI50 [33] was 7.07 µM and the TGI [33] was 26.7 µM. For the same compound, the GI50 [34] was 5.84 µM, the TGI [34] was 30 µM and the GI50 [35] was 5.44 µM. The TGI [35] was 22.2 µM, the GI50 [36] was 3.14 µM and the TGI [36] was 12.9 µM. The GI50 [37] was 11 µM, the TGI [37] was 29.1 µM and the GI50 [38] was 14.2 µM. For the same compound, the TGI [38] was 30.3 µM, the GI50 [39] was 11.8 µM and the TGI [39] was 25.9 µM. The GI50 [40] was 14 µM, the TGI [40] was 33.2 µM and the GI50 [41] was 10.5 µM. The TGI [41] was 23.8 µM, the GI50 [42] was 18.6 µM and the TGI [42] was 34.2 µM. The GI50 [43] was 13.9 µM, the TGI [43] was 27.9 µM and the GI50 [44] was 4.03 µM. For the same compound, the TGI [44] was 15.5 µM, the GI50 [45] was 11 µM and the TGI [45] was 39.4 µM. The GI50 [46] was 5.63 µM, the TGI [46] was 28.2 µM and the GI50 [47] was 5.06 µM. The TGI [47] was 27.5 µM, the GI50 [48] was 4.65 µM and the TGI [48] was 22.5 µM. It also gave a GI50 [49] of 12.8 µM, a TGI [49] of 31.8 µM and a GI50 [50] of 18 µM. For the same compound, the TGI [50] was 59.1 µM, the GI50 [51] was 9.74 µM and the TGI [51] was 25.8 µM. It also gave a GI50 [52] of 7.95 µM and a TGI [52] of 20.6 µM.
